How the values were obtained:
[1] = target: T1, Probable G-protein coupled receptor 139 (Homo sapiens, UniProt Q6DWJ6); test: Agonist activity at human GPR139 expressed in CHO-K1 cells assessed as increase in calcium flux by calcium 5 dye based FLIPR assay; assay type: functional, cell-based
T1 sequence (Q6DWJ6 whole entry): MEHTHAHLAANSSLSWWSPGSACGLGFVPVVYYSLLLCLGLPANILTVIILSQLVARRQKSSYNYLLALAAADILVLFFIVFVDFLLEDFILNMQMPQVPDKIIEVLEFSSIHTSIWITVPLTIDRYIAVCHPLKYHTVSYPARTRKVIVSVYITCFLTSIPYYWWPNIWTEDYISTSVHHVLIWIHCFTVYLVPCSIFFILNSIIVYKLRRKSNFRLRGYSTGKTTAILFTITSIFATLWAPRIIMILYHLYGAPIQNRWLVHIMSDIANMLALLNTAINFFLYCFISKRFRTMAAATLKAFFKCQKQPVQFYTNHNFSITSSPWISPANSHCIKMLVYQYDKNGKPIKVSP

[2] = target: T2, Probable G-protein coupled receptor 139 (Homo sapiens) (UniProt Q6DWJ6); test: Agonist activity at human GPR139 expressed in CHO-K1 cells assessed as increase in calcium flux by calcium 5 dye based FLIPR assay relative to JNJ63533054; assay type: functional, cell-based
T2 sequence (whole entry): T1 sequence (Q6DWJ6 whole entry)

[3] = target: T3, Probable G-protein coupled receptor 139 (Rattus norvegicus, UniProt P0C0W8); test: Agonist activity at rat GPR139 expressed in CHO-K1 cells assessed as increase in calcium flux by calcium 5 dye based FLIPR assay; assay type: cell-based
T3 sequence (P0C0W8 whole entry): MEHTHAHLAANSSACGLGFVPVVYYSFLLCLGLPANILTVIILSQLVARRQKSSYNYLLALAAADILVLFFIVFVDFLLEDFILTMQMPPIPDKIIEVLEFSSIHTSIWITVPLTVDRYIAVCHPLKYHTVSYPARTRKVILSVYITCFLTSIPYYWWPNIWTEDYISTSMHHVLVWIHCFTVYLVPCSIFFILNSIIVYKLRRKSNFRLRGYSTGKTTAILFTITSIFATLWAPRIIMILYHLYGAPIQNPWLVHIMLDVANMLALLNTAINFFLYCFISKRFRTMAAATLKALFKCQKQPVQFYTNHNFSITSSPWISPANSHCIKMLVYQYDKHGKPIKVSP

[4] = target: T4, Probable G-protein coupled receptor 139 (Rattus norvegicus) (UniProt P0C0W8); test: Agonist activity at rat GPR139 expressed in CHO-K1 cells assessed as increase in calcium flux by calcium 5 dye based FLIPR assay relative to JNJ63533054; assay type: cell-based
T4 sequence (whole entry): T3 sequence (P0C0W8 whole entry)

## C[C@@H](NC(=O)Cn1nc2ccccn2c1=O)c1ccc(OC(F)F)cc1
[1]
  EC50: ≥ 100 nM
[2]; filed as agonist
  Emax: 50%

## Cc1ccc([C@H](C)NC(=O)C(C)n2nc3ccccn3c2=O)cc1 (stereo in doubt; form 1) [listing 1 of 2 here]
[1]; cho-k1
  EC50: 1 nM
[3]; cho-k1
  EC50: 1 nM

## C[C@H](NC(=O)Cn1nc2ncccn2c1=O)c1ccc(Cl)cc1
[1]; cho-k1
  EC50: 10 nM
[2]; filed as agonist
  Emax: > 80%
[4]
  Emax: 25%
[3]
  EC50: ≥ 100 nM

## C[C@H](NC(=O)Cn1nc2ccccn2c1=O)c1cncc(F)c1
[1]
  EC50: ≥ 100 nM
[2]; filed as agonist
  Emax: 50%

## C[C@H](NC(=O)Cn1nc2ncccn2c1=O)c1ccc(OC(F)(F)F)cc1
[1]; cho-k1
  EC50: 10 nM
[2]; filed as agonist
  Emax: > 80%
[4]
  Emax: < 25%
[3]
  EC50: ≥ 100 nM

## Cc1cc(C)n2c(=O)n(CC(=O)N[C@@H](C)c3ccc(Cl)cc3)nc2n1
[1]; cho-k1
  EC50: 1 nM
[2]; filed as agonist
  Emax: 50%
[4]
  Emax: < 25%
[3]
  EC50: ≥ 100 nM

## Cc1ccc([C@H](C)NC(=O)Cn2nc3cnccn3c2=O)cc1
[1]; cho-k1
  EC50: 10 nM
[2]; filed as agonist
  Emax: > 80%
[4]; filed as agonist
  Emax: 50%
[3]
  EC50: ≥ 100 nM

## C[C@H](NC(=O)Cn1nc2cccnn2c1=O)c1ccc(OC(F)(F)F)cc1
[1]; cho-k1
  EC50: 1 nM
[2]; filed as agonist
  Emax: > 80%
[4]; filed as agonist
  Emax: 50%
[3]; cho-k1
  EC50: 10 nM

## Cc1ccc([C@H](C)NC(=O)Cn2nc3c(N)cccn3c2=O)cc1
[1]; cho-k1
  EC50: 1 nM
[2]; filed as agonist
  Emax: > 80%
[4]; filed as agonist
  Emax: 50%
[3]; cho-k1
  EC50: 1 nM

## Cc1cnc2nn(CC(=O)N[C@@H](C)c3ccc(Cl)c(F)c3)c(=O)n2c1
[1]; cho-k1
  EC50: 1 nM
[2]; filed as agonist
  Emax: > 80%
[4]; filed as agonist
  Emax: > 80%
[3]; cho-k1
  EC50: 1 nM

## Cc1cc2nn(CC(=O)N[C@@H](C)c3ccc(Cl)cc3)c(=O)n2c(C)n1
[1]
  EC50: < 1 nM
[2]; filed as agonist
  Emax: > 80%
[4]
  Emax: < 25%
[3]
  EC50: ≥ 100 nM

## CNc1nccn2c(=O)n(CC(=O)N[C@@H](C)c3ccc(Cl)c(F)c3)nc12
[1]
  EC50: < 1 nM
[2]; filed as agonist
  Emax: > 80%
[4]; filed as agonist
  Emax: > 80%
[3]
  EC50: < 1 nM

## Cc1ccc([C@H](C)NC(=O)Cn2nc3ccncn3c2=O)cc1
[1]; cho-k1
  EC50: 1 nM
[2]; filed as agonist
  Emax: > 80%

## C[C@H](NC(=O)Cn1nc2c(N3CCN(C)CC3)nccn2c1=O)c1ccc(Cl)c(F)c1
[1]; cho-k1
  EC50: 1 nM
[2]; filed as agonist
  Emax: 50%
[4]; filed as agonist
  Emax: > 80%
[3]; cho-k1
  EC50: 1 nM

## C[C@H](NC(=O)Cn1nc2ccccn2c1=O)c1ccc(OC(F)F)cc1
[1]; cho-k1
  EC50: 1 nM
[2]; filed as agonist
  Emax: > 80%
[4]
  Emax: 25%
[3]; cho-k1
  EC50: 10 nM

## C[C@H](NC(=O)Cn1nc2cc(I)ccn2c1=O)c1ccc(Cl)c(F)c1
[1]
  EC50: < 1 nM
[2]; filed as agonist
  Emax: > 80%
[4]; filed as agonist
  Emax: > 80%
[3]
  EC50: < 1 nM

## COc1ccn2c(=O)n(CC(=O)N[C@@H](C)c3ccc(C)cc3)nc2n1
[1]; cho-k1
  EC50: 1 nM
[2]; filed as agonist
  Emax: > 80%
[4]; filed as agonist
  Emax: 50%
[3]; cho-k1
  EC50: 1 nM

## C[C@H](NC(=O)Cn1nc2ncccn2c1=O)c1ccc(OC(F)F)c(F)c1
[1]; cho-k1
  EC50: 10 nM
[2]; filed as agonist
  Emax: > 80%
[4]
  Emax: 25%
[3]
  EC50: ≥ 100 nM

## Cc1ccc([C@H](C)NC(=O)Cn2nc3c(Cl)cccn3c2=O)cc1
[1]; cho-k1
  EC50: 1 nM
[2]; filed as agonist
  Emax: > 80%
[4]; filed as agonist
  Emax: 50%
[3]
  EC50: < 1 nM

## Cc1cc(C)n2c(=O)n(CC(=O)N[C@@H](C)c3ccc(Cl)c(F)c3)nc2n1
[1]
  EC50: < 1 nM
[2]; filed as agonist
  Emax: > 80%
[4]; filed as agonist
  Emax: 50%
[3]; cho-k1
  EC50: 1 nM

## Cc1ccn2c(=O)n(CC(=O)N[C@@H](C)c3ccc(OC(F)(F)F)cc3)nc2n1
[1]; cho-k1
  EC50: 1 nM
[2]; filed as agonist
  Emax: 50%
[4]
  Emax: < 25%
[3]
  EC50: ≥ 100 nM

## C[C@H](NC(=O)Cn1nc2cccc(N3CCNCC3)n2c1=O)c1ccc(OC(F)(F)F)cc1
[1]; cho-k1
  EC50: 10 nM
[2]; filed as agonist
  Emax: > 80%
[4]
  Emax: 25%
[3]
  EC50: ≥ 100 nM

## C[C@H](NC(=O)Cn1nc2c(N3CCNCC3)nccn2c1=O)c1ccc(Cl)c(F)c1
[1]; cho-k1
  EC50: 1 nM
[2]; filed as agonist
  Emax: > 80%
[4]; filed as agonist
  Emax: 50%
[3]; cho-k1
  EC50: 10 nM

## Cc1ccc([C@H](C)NC(=O)C(C)n2nc3ccccn3c2=O)cc1 (stereo in doubt; form 1) [listing 2 of 2 here]
[2]; filed as agonist
  Emax: > 80%
[4]; filed as agonist
  Emax: 50%

## C[C@H](NC(=O)Cn1nc2ncc(F)cn2c1=O)c1ccc(Cl)cc1
[1]; cho-k1
  EC50: 1 nM
[2]; filed as agonist
  Emax: > 80%
[4]
  Emax: 25%
[3]
  EC50: ≥ 100 nM

## Cc1nccn2c(=O)n(CC(=O)N[C@@H](C)c3ccc(OC(F)(F)F)cc3)nc12
[1]
  EC50: < 1 nM
[2]; filed as agonist
  Emax: > 80%
[4]; filed as agonist
  Emax: > 80%
[3]; cho-k1
  EC50: 1 nM

## Cc1ccc([C@H](C)NC(=O)Cn2nc3cc(C)nc(C)n3c2=O)cc1
[1]; cho-k1
  EC50: 1 nM
[2]; filed as agonist
  Emax: > 80%

## C[C@H](NC(=O)Cn1nc2ccc(Cl)nn2c1=O)c1ccc(Cl)c(F)c1
[1]
  EC50: < 1 nM
[2]; filed as agonist
  Emax: > 80%
[4]; filed as agonist
  Emax: > 80%
[3]
  EC50: < 1 nM

## CC(C)Oc1ccc([C@H](C)NC(=O)Cn2nc3ccccn3c2=O)cc1
[1]; cho-k1
  EC50: 10 nM
[2]; filed as agonist
  Emax: 50%
[4]
  Emax: 25%
[3]
  EC50: ≥ 100 nM

## C[C@H](NC(=O)Cn1nc2cccc(N3CCN(C)CC3)n2c1=O)c1ccc(Cl)c(F)c1
[1]; cho-k1
  EC50: 1 nM
[2]; filed as agonist
  Emax: > 80%
[4]; filed as agonist
  Emax: > 80%
[3]
  EC50: ≥ 100 nM

## C[C@H](NC(=O)Cn1nc2c(I)ccnn2c1=O)c1ccc(Cl)c(F)c1
[1]
  EC50: < 1 nM
[2]; filed as agonist
  Emax: > 80%
[4]; filed as agonist
  Emax: > 80%
[3]; cho-k1
  EC50: 1 nM

## CC(NC(=O)Cn1nc2ccccn2c1=O)c1ccc(OC(F)F)cc1 (stereo in doubt)
[1]; cho-k1
  EC50: 10 nM
[2]; filed as agonist
  Emax: > 80%

## C[C@H](NC(=O)Cn1nc2ncc(F)cn2c1=O)c1ccc(Cl)c(F)c1
[1]; cho-k1
  EC50: 1 nM
[2]; filed as agonist
  Emax: > 80%
[4]; filed as agonist
  Emax: > 80%
[3]; cho-k1
  EC50: 1 nM

## C[C@H](NC(=O)Cn1nc2cccc(N3CC(F)(F)C3)n2c1=O)c1ccc(Cl)c(F)c1
[1]
  EC50: < 1 nM
[2]; filed as agonist
  Emax: > 80%
[4]; filed as agonist
  Emax: 50%
[3]
  EC50: < 1 nM

## C[C@H](NC(=O)Cn1nc2ccccn2c1=O)c1ccc(OC(F)(F)F)cc1
[1]; cho-k1
  EC50: 1 nM
[2]; filed as agonist
  Emax: > 80%
[4]
  Emax: 25%
[3]; cho-k1
  EC50: 1 nM

## Cc1ccc([C@H](C)NC(=O)Cn2nc3c(C4CCNC4)cccn3c2=O)cc1 (some centres not stated)
[1]
  EC50: ≥ 100 nM
[2]; filed as agonist
  Emax: 50%
[4]; filed as agonist
  Emax: 50%
[3]
  EC50: ≥ 100 nM

## O=C(Cn1nc2ccccn2c1=O)NC(c1ccc(Cl)cc1)C1CC1 (configuration not stated)
[1]; cho-k1
  EC50: 10 nM
[2]; filed as agonist
  Emax: > 80%

## C[C@H](NC(=O)Cn1nc2ccc(N3CCCCC3)nn2c1=O)c1ccc(OC(F)(F)F)cc1
[1]; cho-k1
  EC50: 10 nM
[2]
  Emax: 25%
[4]
  Emax: < 25%
[3]
  EC50: ≥ 100 nM

## Cc1ccc([C@H](C)NC(=O)Cn2nc3c(NC(=O)OC(C)(C)C)cccn3c2=O)cc1
[1]; cho-k1
  EC50: 1 nM
[2]; filed as agonist
  Emax: 50%

## Cc1ccc([C@@H](C)NC(=O)Cn2nc3ccccn3c2=O)cc1
[1]
  EC50: ≥ 100 nM
[2]; filed as agonist
  Emax: 50%

## Cc1ccc([C@H](C)NC(=O)Cn2nc3cccc(Br)n3c2=O)cc1
[1]; cho-k1
  EC50: 1 nM
[2]; filed as agonist
  Emax: > 80%
